We go through 8 compounds from patent US9403823B2, “Protein kinase inhibitors” (ORIBASE PHARMA, priority 2012, dated 2016).

Like-named read-outs stand apart in the source and are kept apart here.

One test relates to HepG2 cell line. Kind of test: In vitro cell proliferation assay (MTT), HepG2. The following applies: Homo sapiens, read-out: EC50, anti-proliferative activity. The test is classed as cell-based. The method in brief:
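Cancer cell lines were seeded at 5×10^3 cells per well and HRMEC at 1×10^4 cells per well, then incubated in duplicate with escalating compound concentrations (10 nM to 3 μM) for 72 hr. Proliferation was read by MTT.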

The next test deals with HuCCT1 cell line. Nature of the test: In vitro cell proliferation assay (MTT), HuCCT1. It counts as cell-based. The following applies: Homo sapiens, HuCCT-1; HuCCT1, 72 hr, MTT; read-out: EC50, anti-proliferative activity. Here is the method:
(§1) 2) In Vitro Cell Proliferation Assays (Table 22 to Table 35)
(§2) Cancer cell lines (5×10^3 cells per well) or HUVEC (1×10^4 cells per well) or HRMEC (1×10^4 cells per well) were distributed in 96-well plates and incubating in duplicate with escalating concentrations (10 nM to 3 μM) of compounds for 72 hr. Cell proliferation was measured using MTT (3[4,5-dimethylthiazol-2-yl]-2,5-diphenyltetrazolium bromide).

Another test has as its target T1, BRAF (Homo sapiens, UniProt P15056).
T1 construct: purchased Invitrogen
Nature of the test: In vitro kinase assay (Z'-LYTE), BRAF. The conditions noted are these: read-out: % of inhibition of the kinase compared to the control. It counts as biochemical. The method in brief:
(§3)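 FRET-based Z'-LYTE coupled-enzyme assay: kinase phosphorylates a dual-fluorophore peptide, unphosphorylated peptide is protease-cleaved, and donor/acceptor emission ratio after 400 nm excitation quantifies progress. Buffer 50 mM HEPES pH 7.5, 10 mM MgCl2, 1 mM EGTA, 0.01% BRIJ-35; 1% DMSO final. Single compound concentration: 100 nM, or 10 μM for ABL and ABL T315I.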

Another test addresses T2, EGFR (ErbB1) (Homo sapiens, UniProt P00533).
T2 construct: purchased Invitrogen
Nature of the test: In vitro kinase assay (Z'-LYTE), EGFR (ErbB1). It counts as biochemical. The following applies: read-out: % of inhibition of the kinase compared to the control. The method in brief:
as §3

A further test concerns the target T3, FGFR2 (Homo sapiens, UniProt P21802).
T3 construct: purchased Invitrogen
Kind of test: In vitro kinase assay (Z'-LYTE), FGFR2. The test is classed as biochemical. The following applies: read-out: % of inhibition of the kinase compared to the control. The method in brief: as §3

A further test deals with T4, KDR (VEGFR2) (Homo sapiens, UniProt P35968).
T4 construct: purchased Invitrogen
T4 sequence (P35968 20-1356): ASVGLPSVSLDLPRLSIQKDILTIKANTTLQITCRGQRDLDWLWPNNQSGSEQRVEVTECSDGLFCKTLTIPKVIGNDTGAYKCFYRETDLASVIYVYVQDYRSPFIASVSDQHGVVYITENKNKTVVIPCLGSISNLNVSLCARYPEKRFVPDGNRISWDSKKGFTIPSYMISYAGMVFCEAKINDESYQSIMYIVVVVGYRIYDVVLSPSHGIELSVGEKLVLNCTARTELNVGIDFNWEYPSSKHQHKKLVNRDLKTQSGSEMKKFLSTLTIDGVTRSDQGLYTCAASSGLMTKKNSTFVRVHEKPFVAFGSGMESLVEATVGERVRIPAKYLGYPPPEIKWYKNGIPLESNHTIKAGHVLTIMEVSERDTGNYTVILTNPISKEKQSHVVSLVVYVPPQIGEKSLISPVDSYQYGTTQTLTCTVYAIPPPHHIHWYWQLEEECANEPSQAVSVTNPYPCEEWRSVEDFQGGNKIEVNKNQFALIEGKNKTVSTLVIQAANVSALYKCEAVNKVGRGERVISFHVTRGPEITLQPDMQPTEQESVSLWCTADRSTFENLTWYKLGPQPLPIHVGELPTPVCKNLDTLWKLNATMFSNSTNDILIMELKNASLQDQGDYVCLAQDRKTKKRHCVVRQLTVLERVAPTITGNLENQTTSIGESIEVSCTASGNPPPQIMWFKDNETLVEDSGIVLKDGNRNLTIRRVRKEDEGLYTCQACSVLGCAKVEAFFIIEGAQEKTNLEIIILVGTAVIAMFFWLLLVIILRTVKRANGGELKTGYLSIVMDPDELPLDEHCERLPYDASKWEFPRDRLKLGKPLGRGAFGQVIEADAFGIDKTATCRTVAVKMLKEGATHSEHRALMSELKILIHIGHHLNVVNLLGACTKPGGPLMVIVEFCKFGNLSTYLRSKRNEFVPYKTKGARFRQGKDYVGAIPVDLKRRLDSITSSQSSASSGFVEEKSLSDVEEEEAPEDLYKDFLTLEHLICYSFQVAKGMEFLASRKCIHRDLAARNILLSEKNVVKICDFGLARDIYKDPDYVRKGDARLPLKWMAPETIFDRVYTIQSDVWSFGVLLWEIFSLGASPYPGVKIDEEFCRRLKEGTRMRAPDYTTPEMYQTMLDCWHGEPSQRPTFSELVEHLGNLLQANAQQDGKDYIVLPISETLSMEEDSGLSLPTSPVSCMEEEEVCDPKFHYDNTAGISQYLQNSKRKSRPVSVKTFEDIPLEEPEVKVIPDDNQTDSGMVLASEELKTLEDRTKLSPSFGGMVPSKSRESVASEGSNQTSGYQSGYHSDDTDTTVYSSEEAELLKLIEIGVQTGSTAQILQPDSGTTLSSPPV
Nature of the test: In vitro kinase assay (Z'-LYTE), KDR (VEGFR2). The following applies: read-out: % of inhibition of the kinase compared to the control. It counts as biochemical. The method in brief: as §3

The target of another test is T5, PDGFRA (PDGFR alpha) (Homo sapiens, UniProt P16234).
T5 construct: purchased Invitrogen
T5 sequence (P16234 24-1089): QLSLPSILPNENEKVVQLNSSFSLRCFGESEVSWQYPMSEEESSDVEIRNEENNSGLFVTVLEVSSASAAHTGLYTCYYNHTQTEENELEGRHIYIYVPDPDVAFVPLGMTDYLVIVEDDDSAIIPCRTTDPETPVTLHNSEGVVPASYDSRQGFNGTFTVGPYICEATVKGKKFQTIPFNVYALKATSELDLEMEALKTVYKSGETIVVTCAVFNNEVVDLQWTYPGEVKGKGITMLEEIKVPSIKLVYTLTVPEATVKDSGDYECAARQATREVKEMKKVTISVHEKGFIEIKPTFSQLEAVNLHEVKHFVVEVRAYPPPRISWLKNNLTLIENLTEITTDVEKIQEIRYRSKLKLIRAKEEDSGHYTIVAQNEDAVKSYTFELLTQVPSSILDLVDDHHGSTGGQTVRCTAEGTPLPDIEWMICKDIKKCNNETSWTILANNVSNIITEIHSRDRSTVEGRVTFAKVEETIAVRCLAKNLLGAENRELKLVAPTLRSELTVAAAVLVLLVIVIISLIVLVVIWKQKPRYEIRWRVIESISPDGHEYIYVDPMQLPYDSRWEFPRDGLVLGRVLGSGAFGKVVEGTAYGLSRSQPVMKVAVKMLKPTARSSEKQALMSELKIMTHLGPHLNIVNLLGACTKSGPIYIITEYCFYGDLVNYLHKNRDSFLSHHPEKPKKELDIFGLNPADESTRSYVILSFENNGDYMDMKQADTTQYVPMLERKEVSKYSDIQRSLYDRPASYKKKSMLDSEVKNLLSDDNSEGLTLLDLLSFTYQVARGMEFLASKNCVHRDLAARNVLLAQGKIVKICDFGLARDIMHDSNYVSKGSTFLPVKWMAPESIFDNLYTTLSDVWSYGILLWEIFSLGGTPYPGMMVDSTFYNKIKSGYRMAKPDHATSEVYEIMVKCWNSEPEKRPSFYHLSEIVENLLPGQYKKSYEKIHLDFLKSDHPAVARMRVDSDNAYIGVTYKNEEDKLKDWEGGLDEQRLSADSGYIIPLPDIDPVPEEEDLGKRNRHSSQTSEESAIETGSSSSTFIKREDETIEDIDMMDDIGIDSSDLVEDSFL
Nature of the test: In vitro kinase assay (Z'-LYTE), PDGFRA. The test is classed as biochemical. The following applies: read-out: % of inhibition of the kinase compared to the control. The method in brief:
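Z'-LYTE, HEPES pH 7.5/MgCl2/EGTA/BRIJ-35 buffer, 1% DMSO; cpd 100 nM (ABL, ABL T315I: 10 μM); ratiometric FRET read-out after protease development; % inhibition.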

The next test addresses T6, SRC (Homo sapiens, UniProt P12931).
T6 construct: purchased Invitrogen
Kind of test: In vitro kinase assay (Z'-LYTE), SRC. The following applies: read-out: % of inhibition of the kinase compared to the control. The test is classed as biochemical. The method, boiled down: as §3

The test system of the next test is HuH7 cell line. Nature of the test: In vitro cell proliferation assay (MTT), HuH7. The test is classed as cell-based. The following applies: Homo sapiens, Huh-7; HuH7, 72 hr, MTT; read-out: EC50, anti-proliferative activity. How it is done: as §1, §2
The next test addresses T7, EGFR (ErbB1) T790M L858R (Homo sapiens, UniProt P00533, L858R/T790M).
T7 construct: purchased Invitrogen
Kind of test: In vitro kinase assay (Z'-LYTE), EGFR (ErbB1) T790M L858R. It counts as biochemical. The conditions noted are these: read-out: % of inhibition of the kinase compared to the control. Here is the method: 1) In Vitro Kinase Assays (Table 10 to Table 21)
The inhibitory activity of the compounds on several kinases including BRAF, EGFR (ErbB1), EGFR (ErbB1) T790M L858R, FGFR2, KDR (VEGFR2), PDGFRA (PDGFR alpha), SRC and other was evaluated by Invitrogen using the Z′-LYTE® technology. Briefly, the Z′-LYTE® biochemical assay employs a fluorescence-based, coupled-enzyme format and is based on the differential sensitivity of phosphorylated and non-phosphorylated peptides to proteolytic cleavage. The peptide substrate is labeled with two fluorophores—one at each end—that make up a FRET pair. A ratiometric method, which calculates the ratio (the Emission Ratio) of donor emission to acceptor emission after excitation of the donor fluorophore at 400 nm, is used to quantitate reaction progress.
The compounds are screened in 1% DMSO (final) in the well. For 10 point titrations, 3-fold serial dilutions are conducted from the starting concentration. All Peptide/Kinase Mixtures are diluted to a 2× working concentration in the appropriate Kinase Buffer. All ATP Solutions are diluted to a 4× working concentration in Kinase Buffer (50 mM HEPES pH 7.5, 0.01% BRIJ-35, 10 mM MgCl2, 1 mM EGTA). ATP Km apparent is previously determined using a Z′-LYTE® assay.
Each compound was incubated at a concentration of 100 nM (excepted to test the activity against ABL and ABL T315I for which the compounds were incubated at a concentration of 10 μM) and the tables 10 to 21 summarize the results obtained showing the inhibitory power of a compound.

The subject of a further test is A549 cell line. Kind of test: In vitro cell proliferation assay (MTT), A549. It counts as cell-based. The conditions noted are these: Homo sapiens, read-out: EC50, anti-proliferative activity. Here is the method:
as §1, §2

A further test deals with HuH6 Clone 5 cell line. Kind of test: In vitro cell proliferation assay (MTT), HuH6 Clone 5. It counts as cell-based. The following applies: read-out: EC50, anti-proliferative activity. Here is the method: as §1, §2
The next test deals with HUVEC. Nature of the test: In vitro cell proliferation assay (MTT), HUVEC. The following applies: Homo sapiens, read-out: EC50, anti-proliferative activity. It counts as cell-based. The method, boiled down: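 HUVEC cells were plated at 1×10^4 cells per well in 96-well plates and exposed in duplicate to increasing compound concentrations from 10 nM to 3 μM for 72 hr. Proliferation was then quantified with MTT (3[4,5-dimethylthiazol-2-yl]-2,5-diphenyltetrazolium bromide) to determine anti-proliferative activity.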

The next test deals with HT29 cell line. Kind of test: In vitro cell proliferation assay (MTT), HT29. The test is classed as cell-based. The conditions noted are these: Homo sapiens, HT-29; HT29, 72 hr, MTT; read-out: EC50, anti-proliferative activity. Here is the method: as §1, §2
In the next test the test system is H1975 cell line. Kind of test: In vitro cell proliferation assay (MTT), H1975. The test is classed as cell-based. The conditions noted are these: Homo sapiens, NCI-H1975; H1975, 72 hr, MTT; read-out: EC50, anti-proliferative activity. Here is the method: as §1, §2
For another test, the system named is MDA-MB-231 cell line. Kind of test: In vitro cell proliferation assay (MTT), MDA-MB-231. The test is classed as cell-based. The conditions noted are these: Homo sapiens, read-out: EC50, anti-proliferative activity. How it is done:
as §1, §2

Another test concerns HeLa cell line. Kind of test: In vitro cell proliferation assay (MTT), HeLa. The conditions noted are these: Homo sapiens, read-out: EC50, anti-proliferative activity. The test is classed as cell-based. Here is the method:
as §1, §2

T3 sequence (P21802 22-821): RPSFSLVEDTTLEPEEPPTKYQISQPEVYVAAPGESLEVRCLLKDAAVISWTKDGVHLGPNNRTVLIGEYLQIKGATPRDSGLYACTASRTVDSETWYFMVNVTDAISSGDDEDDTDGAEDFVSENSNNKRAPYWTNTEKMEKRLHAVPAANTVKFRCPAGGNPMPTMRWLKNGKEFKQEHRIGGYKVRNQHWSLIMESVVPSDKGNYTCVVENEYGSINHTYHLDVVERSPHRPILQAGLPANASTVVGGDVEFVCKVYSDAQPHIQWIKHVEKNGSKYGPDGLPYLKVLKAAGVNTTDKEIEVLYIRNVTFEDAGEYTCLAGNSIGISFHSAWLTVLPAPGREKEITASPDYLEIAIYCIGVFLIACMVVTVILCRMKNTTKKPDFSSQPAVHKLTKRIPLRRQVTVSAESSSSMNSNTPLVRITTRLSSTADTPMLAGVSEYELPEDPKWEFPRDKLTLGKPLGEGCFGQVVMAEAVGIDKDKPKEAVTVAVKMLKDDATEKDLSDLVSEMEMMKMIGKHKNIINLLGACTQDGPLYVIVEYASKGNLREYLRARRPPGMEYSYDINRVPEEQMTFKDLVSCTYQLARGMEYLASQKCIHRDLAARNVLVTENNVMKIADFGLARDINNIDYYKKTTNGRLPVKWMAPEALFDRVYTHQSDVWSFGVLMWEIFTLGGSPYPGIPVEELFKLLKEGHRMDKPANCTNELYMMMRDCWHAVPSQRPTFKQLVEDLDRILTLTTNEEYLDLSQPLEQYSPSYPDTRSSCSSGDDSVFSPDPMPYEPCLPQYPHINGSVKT
T6 sequence (P12931 whole entry): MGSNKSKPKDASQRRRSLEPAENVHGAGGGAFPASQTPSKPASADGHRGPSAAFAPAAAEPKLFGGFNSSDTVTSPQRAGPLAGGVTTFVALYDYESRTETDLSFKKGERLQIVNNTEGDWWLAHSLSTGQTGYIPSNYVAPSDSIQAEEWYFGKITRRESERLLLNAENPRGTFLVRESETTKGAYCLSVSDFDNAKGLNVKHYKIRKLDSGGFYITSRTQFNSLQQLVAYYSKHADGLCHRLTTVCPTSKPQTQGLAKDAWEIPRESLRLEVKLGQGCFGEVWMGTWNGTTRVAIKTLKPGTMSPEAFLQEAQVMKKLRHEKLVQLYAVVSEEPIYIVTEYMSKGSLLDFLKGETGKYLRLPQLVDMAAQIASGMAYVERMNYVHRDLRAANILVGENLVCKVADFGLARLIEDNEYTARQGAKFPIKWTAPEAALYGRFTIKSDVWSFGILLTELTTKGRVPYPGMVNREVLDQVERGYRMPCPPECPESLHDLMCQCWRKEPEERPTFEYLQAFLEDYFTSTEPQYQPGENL
T2 sequence (P00533 25-1210): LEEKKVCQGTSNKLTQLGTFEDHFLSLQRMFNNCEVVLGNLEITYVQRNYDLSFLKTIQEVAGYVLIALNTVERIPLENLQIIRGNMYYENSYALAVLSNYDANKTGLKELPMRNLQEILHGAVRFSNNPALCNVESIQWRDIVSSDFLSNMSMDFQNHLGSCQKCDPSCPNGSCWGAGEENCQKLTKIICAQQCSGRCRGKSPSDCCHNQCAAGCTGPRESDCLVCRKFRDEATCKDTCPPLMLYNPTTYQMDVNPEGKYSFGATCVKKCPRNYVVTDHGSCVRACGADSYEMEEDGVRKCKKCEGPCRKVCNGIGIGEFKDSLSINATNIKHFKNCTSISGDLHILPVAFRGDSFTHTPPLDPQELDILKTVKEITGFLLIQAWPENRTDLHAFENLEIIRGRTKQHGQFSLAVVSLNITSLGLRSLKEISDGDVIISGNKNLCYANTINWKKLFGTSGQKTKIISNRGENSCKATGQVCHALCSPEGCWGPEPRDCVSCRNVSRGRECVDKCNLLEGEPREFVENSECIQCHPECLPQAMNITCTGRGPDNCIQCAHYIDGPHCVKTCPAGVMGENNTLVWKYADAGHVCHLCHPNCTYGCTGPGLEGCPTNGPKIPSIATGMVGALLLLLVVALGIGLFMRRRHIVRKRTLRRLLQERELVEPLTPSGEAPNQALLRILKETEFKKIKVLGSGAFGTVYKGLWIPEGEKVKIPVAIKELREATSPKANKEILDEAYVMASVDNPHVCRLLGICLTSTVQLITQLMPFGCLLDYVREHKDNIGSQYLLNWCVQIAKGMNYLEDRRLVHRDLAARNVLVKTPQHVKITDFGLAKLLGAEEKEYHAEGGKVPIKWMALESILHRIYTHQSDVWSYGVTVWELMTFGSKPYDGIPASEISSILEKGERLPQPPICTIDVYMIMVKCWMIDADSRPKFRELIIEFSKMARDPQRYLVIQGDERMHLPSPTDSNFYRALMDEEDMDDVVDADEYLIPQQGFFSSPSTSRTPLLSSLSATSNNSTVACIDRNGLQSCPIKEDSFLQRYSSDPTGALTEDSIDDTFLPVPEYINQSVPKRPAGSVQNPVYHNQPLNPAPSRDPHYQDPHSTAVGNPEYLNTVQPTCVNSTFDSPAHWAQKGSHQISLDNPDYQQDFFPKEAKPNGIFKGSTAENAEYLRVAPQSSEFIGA

Take `Cc1nc(Nc2ncc(C(=O)Nc3c(C)cccc3Cl)s2)cc(N2CCN(CCO)CC2)n1` [Dasatinib, reference compound]: the EC50 (as a rule, the midpoint of the concentration-response curve) with HepG2 cell line (HepG2, 72 hr, MTT) was no less than 1 µM; in the test with HuCCT1 cell line it was no less than 1 µM.

In the case of `CC(=O)c1cc2cc(NCc3cc(NC(=O)c4ccc(CN5CCN(C)CC5)cc4)ccc3C)cnc2[nH]1` [OR0734, N-{3-[(2-Acetyl-1H-pyrrolo[2,3-b]pyridin-5-ylamino)-methyl]-4-methyl-phenyl}-4-(4-methyl-piperazin-1-ylmethyl)-benzamide], the inhibition (commonly the change of the read-out against control, counted positive when it falls) at 0.1 µM on BRAF is less than 50%; at EGFR (ErbB1) it was no less than 50%; at FGFR2, less than 50%; at KDR (VEGFR2), no less than 50%; on PDGFRA (PDGFR alpha), no less than 50%; at SRC, no less than 50%. In addition, the EC50 in the test on HuH7 cell line was no less than 1 µM.

With `CNC(=O)c1cc2cc(NCc3cc(NC(=O)c4ccc(CN5CCN(C)CC5)cc4)ccc3C)cnc2[nH]1` [OR0753, 5-{2-Methyl-5-[4-(4-methyl-piperazin-1-ylmethyl)-benzoylamino]-benzylamino}-1H-pyrrolo[2,3-b]pyridine-2-carboxylic acid methylamide], the inhibition at 0.1 µM was no less than 50% at BRAF; no less than 50% at EGFR (ErbB1); no less than 50% at EGFR (ErbB1) T790M L858R; less than 50% on FGFR2; no less than 50% at KDR (VEGFR2); no less than 50% on PDGFRA (PDGFR alpha). The inhibition at 0.1 µM at SRC was no less than 50%. In addition, the EC50 with A549 cell line (A549, 72 hr, MTT) is no less than 1 µM; in the test on HepG2 cell line (HepG2, 72 hr, MTT), no less than 1 µM; with HuCCT1 cell line, no less than 1 µM; in the test with HuH6 Clone 5 cell line (HUH-6-clone5, 72 h) it was 0.1 to 1 µM; in the test on HuH7 cell line, no less than 1 µM; in the test on HUVEC (72 hr, MTT), no less than 1 µM.

As to `CC(=O)c1cc2cc(NC(=O)c3cc(NC(=O)c4ccc(CN5CCN(C)CC5)cc4)ccc3C)cnc2[nH]1` [OR0780, N-(2-Acetyl-1H-pyrrolo[2,3-b]pyridin-5-yl)-2-methyl-5-[4-(4-methyl-piperazin-1-ylmethyl)-benzoylamino]-benzamide], the inhibition at 0.1 µM on BRAF is less than 50%; at EGFR (ErbB1), less than 50%; on EGFR (ErbB1) T790M L858R, less than 50%; at FGFR2, less than 50%; at KDR (VEGFR2), less than 50%; at PDGFRA (PDGFR alpha) it was no less than 50%. On SRC, the inhibition at 0.1 µM was less than 50%. Also, the EC50 in the test on A549 cell line (A549, 72 hr, MTT) was no less than 1 µM; with HT29 cell line, no less than 1 µM; with H1975 cell line, no less than 1 µM; in the test on HUVEC (72 hr, MTT), no less than 1 µM.

For the compound `CC(=O)c1cc2cc(NCc3cc(NC(=O)c4ccc(CN5CCN(C)CC5)c(C(F)(F)F)c4)ccc3F)cnc2[nH]1` [OR0972, N-{3-[(2-Acetyl-1H-pyrrolo[2,3-b]pyridin-5-ylamino)-methyl]-4-fluoro-phenyl}-4-(4-methyl-piperazin-1-ylmethyl)-3-trifluoromethyl-benzamide], the inhibition at 0.1 µM was less than 50% at BRAF, no less than 50% on EGFR (ErbB1), no less than 50% at FGFR2 and no less than 50% on KDR (VEGFR2). Besides, the 50% effective concentration (EC50) was 0.1 to 1 µM in the test on A549 cell line (A549, 72 h); no more than 0.1 µM in the test on HepG2 cell line (HepG2, 72 h); 0.1 to 1 µM in the test with HUVEC (72 h); no more than 0.1 µM in the test on MDA-MB-231 cell line (MDA-MB-231, 72 h); 0.1 to 1 µM with HeLa cell line (72 h).

For `CC(=O)c1cc2cc(NC(=O)c3cccc(CNC(=S)c4cccc(C(F)(F)F)c4)c3)cnc2[nH]1` [OR1012, N-[3-(2-Acetyl-1H-pyrrolo[2,3-b]pyridin-5-ylcarbamoyl)-benzyl]-3-trifluoromethyl-thiobenzamide], the inhibition at 0.1 µM at BRAF, on EGFR (ErbB1), at FGFR2, at KDR (VEGFR2), on PDGFRA (PDGFR alpha) and on SRC was less than 50% throughout. For the same compound, the EC50 in the test with A549 cell line (A549, 72 hr, MTT) was no less than 1 µM; with HepG2 cell line (HepG2, 72 hr, MTT) it was no less than 1 µM; with HUVEC (72 hr, MTT), no less than 1 µM; with MDA-MB-231 cell line (MDA-MB-231, 72 hr, MTT), no less than 1 µM; in the test with HeLa cell line (72 hr, MTT) it was no less than 1 µM.

Turning to `CC(=O)c1cc2cc(NCc3cc(NC(=S)Nc4cccc(C(F)(F)F)c4)ccc3C)cnc2[nH]1` [OR1015, 1-{3-[(2-Acetyl-1H-pyrrolo[2,3-b]pyridin-5-ylamino)-methyl]-4-methyl-phenyl}-3-(3-trifluoromethyl-phenyl)-thiourea], the inhibition at 0.1 µM at BRAF, on EGFR (ErbB1), on FGFR2, on KDR (VEGFR2), on PDGFRA (PDGFR alpha) and at SRC was less than 50% throughout. The half-maximal effective concentration (EC50) in the test on A549 cell line (A549, 72 hr, MTT) is no less than 1 µM; in the test with HepG2 cell line (HepG2, 72 h) it was 0.1 to 1 µM; with HUVEC (72 h) it was 0.1 to 1 µM; in the test with MDA-MB-231 cell line (MDA-MB-231, 72 hr, MTT) it was no less than 1 µM; in the test with HeLa cell line (72 hr, MTT), no less than 1 µM.

For the compound `CNC(=O)c1cc(Oc2ccc(NC(=O)Nc3ccc(Cl)c(C(F)(F)F)c3)cc2)ccn1` [Sorafenib, reference compound], the EC50 with HepG2 cell line (HepG2, 72 hr, MTT) was 1 to 3 µM; in the test on HuCCT1 cell line it was 1 to 3 µM; in the test with HuH6 Clone 5 cell line (HUH-6-clone5, HuH6 Clone 5, 72 hr, MTT) it was 1 to 3 µM; in the test with HuH7 cell line it was 1 to 3 µM.
